“Also recorded” adds a separate entry of the source. Peptide text beside a SMILES is read from it.
Legend:
Assay type in all cases: cell-based, human
Conditions in all cases: 50 µM peptide, 12 hr, HEK293, vs DMSO
[1] = tested on: FGF14^V160A:Nav1.6 complex; assay: LCA, CLuc-FGF14^V160A
Text: Plasmids used in this study derived from the following clones: human FGF14‐1b isoform (accession number: NM_175929.2) and human Nav1.6 (accession number: NM_014191.3). The CLuc‐FGF14, CD4‐Nav1.6‐NLuc, constructs and the pcDNA3.1 vector (Invitrogen, Carlsbad, CA) were engineered and characterized as previously described (Goetz et al., 2009; Shavkunov et al., 2012,2013,2015; Ali et al., 2016, 2018; Wadsworth et al., 2019). The plasmid pGL3 expressing full length Firefly (Photinus pyralis) luciferase was a gift from Dr. P. Sarkar (Department of Neurology, UTMB). For protein purification studies, cDNAs encoding FGF14‐1b (accession number NP_787125; aa 64–252) or the C‐terminal tail of Nav1.6 (accession number #NP_001171455; aa 1756–1939) were subcloned into suitable pET bacterial expression vectors (pET28a‐FGF14; pET30a‐Nav1.6) with a 6X His‐tag at the N‐terminal site; these plasmids were a gift of Dr. Moosa Mohammadi (NYU, Langone Medical Center). The mutation coding for FGF14^V160A was generated by site‐directed mutagenesis and PCR using FGF14‐1b as a template described previously (Ali et al., 2016). […]
Twenty‐four hours after transfection, HEK293 cells were replated from the 24‐well plate using a 0.04% Trypsin:EDTA mixture dissolved in PBS. […] The bioluminescence reaction was initiated by dispensing 100 µl of D‐luciferin substrate (1.5 mg/ml dissolved in PBS) using a Synergy^TM H4 Multi‐Mode Micro plate Reader (Biotech, Winooski, VT). Luminescence readings were initiated after 3 s of mild plate shaking and performed at 2 min intervals for 20 min with integration times of 0.5 s. […]
To test the hypothesis that FLPK, PLEV and/or EYYV in cells could act as FGF14 inhibitors of the FGF14:Nav1.6 complex assembly, the complex was reconstituted using LCA (Ali et al., 2014, 2016; Hsu et al., 2015, 2017; Shavkunov et al., 2012,2013,2015; Wadsworth et al., 2019). HEK293 cells transfected with constructs expressing CLuc‐FGF14 and CD4‐Nav1.6 C‐tail‐NLuc in which luminescence is detected upon addition of the D‐luciferin substrate as a read‐out of protein binding (Figure 3). […]

[2] = tested on: FGF14^Y158A:Nav1.6 complex; assay: LCA, CLuc-FGF14^Y158A
[3] = tested on: FGF14^Y158A/V160A:Nav1.6 complex; assay: LCA, CLuc-FGF14^Y158A/V160A
[4] = tested on: FGF14^Y158N/V160N:Nav1.6 complex; assay: LCA, CLuc-FGF14^Y158N/V160N

Compound	effect on FGF14^V160A:Nav1.6 complex formation [1]	effect on FGF14^Y158A:Nav1.6 complex formation [2]	effect on FGF14^Y158A/V160A:Nav1.6 complex formation [3]	effect on FGF14^Y158N/V160N:Nav1.6 complex formation [4]
CC(=O)N[C@@H](Cc1ccccc1)C(=O)N[C@@H](CC(C)C)C(=O)N1CCC[C@H]1C(=O)N[C@@H](CCCCN)C(N)=O [FLPK] (Ac-FLPK-NH2)	prevented the effect of FLPK and EYYV; also recorded: abolished	abolished the effect of FLPK	prevented the effect of FLPK and EYYV; also recorded: abolished	abolished the effect of FLPK; also recorded: similarly abolished
PLEV [tetrapeptide previously designed from FGF14:FGF14 dimer interface; docked with N-terminal acetylation and C-terminal amidation]	not PLEV	increased the inhibition	slight, but statistically significant increase; also recorded: not PLEV	increased the inhibition
EYYV [tetrapeptide previously designed from FGF14:FGF14 dimer interface; docked with N-terminal acetylation and C-terminal amidation]	prevented the effect of FLPK and EYYV; also recorded: abolished	increased the inhibition	prevented the effect of FLPK and EYYV; also recorded: abolished	–

From paper PMC7363588, “Mapping of the FGF14:Nav1.6 complex interface reveals FLPK as a functionally active peptide modulating excitability” (Physiological Reports, 2020)
